# Measured values: patent US6203835A, “Use of hydroxy acid or a product containing the same in animal feed” (Oy Extracta Ltd., priority 1995, dated 2001)
# Counter-ions that a name gives are not always drawn.
# Tests used:
# in vivo = conditions: mouse
# Description: (§1) The acting mechanism of alpha-hydroxy acids on microbes is unclear. It is plausible that these acids act as antimetabolites of the corresponding alpha-amino acids. […] After their resorption into the organism, these acids are metabolized through the same paths as the corresponding alpha-amino acids.
# physchem = conditions: for pH of maximum buffer capacity: mixture of the acid and a salt of said acid with a strong base
# Description: as §1
# micro-organisms = assay: Antimicrobial effect of hydroxy acids on micro-organisms in vitro
# leucine amino peptidase = conditions: cited from earlier work
# Salmonella infantis = assay: Effect of hydroxy acids on growth of Salmonella infantis in vitro (turbidity 600 nm); assay type: cell-based; conditions: MRS medium, 37° C., 20 hours; 0.03, 0.1 and 0.3% tested
# Description: In this example, an investigation was carried out into the sensitivity of Salmonella infantis bacterium representing the genus Salmonella to two hydroxy acids: L-2-hydroxy-3-methyl butyric acid (HMB) and L-2-hydroxy-4-methyl valeric acid (HMV). The acids were added to the MRS growth medium of the bacterium so that resulting concentrations were controlled to 0.03, 0.1 and 0.3%. The organism growth was followed at 37° C. for 20 hours by measuring the turbidity of the culture at 600 nm wavelength.
# [1] = test system: coliform bacterium strain (104); assay: Effect of hydroxy acids on growth of coliform strain in vitro (turbidity 600 nm); assay type: cell-based; conditions: MRS medium, 37° C.; 0.03, 0.1 and 0.3% tested
# Description: (§2) In the example, the sensitivity of microbes isolated from the small intestine of broiler chickens to hydroxy acids were measured under laboratory conditions. For the test, a representative test organism species from each of the bacterium groups mentioned above was chosen. Of the hydroxy acids, HMB (2-hydroxy-3-methyl butric acid) and HMV (2-hydroxy-4-methyl valeric acid) were separately tested using their a mixture of their L- and D-forms as well as the pure L-form. The acids were added to the MRS growth medium of the bacterium so that resulting concentrations were controlled to 0.03, 0.1 and 0.3%. The organism growth was followed at 37° C. by measuring the turbidity of the culture at 600 nm wavelength.
# [2] = test system: Enterococcus strain (111); assay: Effect of hydroxy acids on growth of Enterococcus strain in vitro (turbidity 600 nm); assay type: cell-based; conditions: MRS medium, 37° C.; 0.03, 0.1 and 0.3% tested
# Description: as §2
structure (smiles),measurement,setting,value
"CC(C)C(O)C(=O)O (racemic) [Na-salt of d,l-2-hydroxy-3-methyl]",LD50,in vivo; iv,1080 mg/kg
"CC(C)CC(O)C(=O)O (racemic) [Na-salt of d,l-2-hydroxy-4-methyl]",LD50,in vivo; in vivo,650 mg/kg
"CC(C)C(O)C(=O)O (racemic) [d,l-2-hydroxy-3-methyl butyric acid]",pKa,physchem,3.8
same,pH of maximum buffer capacity,physchem,3.8 pH
same,number of different micro-organisms on which an antimicrobial effect was shown,micro-organisms,about seventy
"CC(C)CC(O)C(=O)O (racemic) [d,l-2-hydroxy-4-methyl valeric acid]",pKa,physchem,3.8
same,pH of maximum buffer capacity,physchem,3.8 pH
same,number of different micro-organisms on which an antimicrobial effect was shown,micro-organisms,about seventy
CC(C)CC(O)C(=O)O (stereo not drawn) [2-hydroxy-4-methyl valeric acid],inhibition of leucine amino peptidase,leucine amino peptidase,competitive inhibitor
"CC(C)[C@H](O)C(=O)O [HMB, L-2-hydroxy-3-methyl butyric acid]",hydroxy acid concentration clearly inhibiting growth,Salmonella infantis,0.1%
same,hydroxy acid concentration effectively inhibiting growth,[1],0.1%
same,growth-inhibiting effect,[2],clear growth-inhibiting effect
"CC(C)C[C@H](O)C(=O)O [HMV, L-2-hydroxy-4-methyl valeric acid]",hydroxy acid concentration clearly inhibiting growth,Salmonella infantis,0.1%
same,hydroxy acid concentration effectively inhibiting growth,[1],0.1%
same,growth-inhibiting effect,[2],clear growth-inhibiting effect
